The source of these data is ChEMBL document CHEMBL1201862, “PubChem BioAssay data set” (2004).

Common to all, as to assay: inhibition of tumour cell growth, NCI panel, 48 h
The test system of assay [1] is Malme-3M.
The subject of assay [2] is CAKI-1.
Assay [3] deals with NCI-H460.
Assay [4] concerns MOLT-4.
Assay [5] relates to COLO 205.
The subject of assay [6] is M14.
Assay [7] deals with HCT-15.
The subject of assay [8] is HCC 2998.
Assay [9] has as its system SF-295.
For assay [10], the system named is 786-0.
In assay [11] the test system is SF-539.
In assay [12] the test system is NCI-H23.
For assay [13], the system named is TK-10.
For assay [14], the system named is OVCAR-4.
The test system of assay [15] is MDA-MB-435.
Assay [16] has as its system SNB-19.
For assay [17], the system named is UACC-257.
Assay [18] concerns EKVX.
The test system of assay [19] is SK-MEL-2.
In assay [20] the test system is SK-OV-3.

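Following 48 hours of exposure in 96-well plates, responses at five concentrations were used to interpolate endpoints linearly. GI50: concentration for 50% inhibition of growth.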 Activity calls are given as the source filed them. Rule as the data show it: active = GI50 up to about 1.1 µM and inactive = higher. Where only a bound is given, the exact number is not on record here.

On to `c1csc(-c2cc(-c3ccsc3)c(-c3cccs3)s2)c1`, for which the GI50 is 59.2 µM (inactive) in [1]; > 100 µM (inactive) in assay [2]; 43.5 µM (inactive) in assay [3]; 30.1 µM (inactive) in [4]; 23.1 µM (inactive) in assay [5]; 56.1 µM (inactive) in assay [6]. Also, the GI50 in assay [7] was 44.1 µM; in assay [8], 55.8 µM (inactive); in [9], > 100 µM (inactive); in assay [10], > 100 µM (inactive); in assay [11], > 100 µM (inactive); in assay [12], 58.7 µM (inactive). For the same compound, the GI50 was > 100 µM (inactive) in assay [13]; > 100 µM (inactive) in assay [14]; 39.4 µM (inactive) in [15]; > 100 µM (inactive) in [16]; 56.2 µM (inactive) in assay [17]; 16 µM (inactive) in assay [18].
`CC1(C)OC(=S)N(c2ccccc2)C12C=Cc1cc3ccccc3cc1O2` (stereo not given): the GI50 in assay [2], in assay [3], in assay [19], in assay [4], in assay [5] and in assay [6] was > 100 µM (inactive) each time. The GI50 in assay [20] is > 100 µM (inactive); in assay [7] it was over 100 µM; in assay [8], > 100 µM (inactive); in assay [9], > 100 µM (inactive); in assay [10], > 100 µM (inactive); in assay [12], > 100 µM (inactive). The GI50 in assay [13], in assay [14], in assay [15], in [16], in assay [17] and in assay [18] was > 100 µM (inactive) each time.
As to `Cc1csc(NC23CC4CC(CC(C4)C2)C3)[n+]1C(P(=O)([O-])O)P(=O)(O)O` (stereo not given), the GI50 in assay [1], in assay [2], in assay [3], in assay [4], in assay [5] and in assay [6] was > 100 µM (inactive) throughout. In addition, the GI50 in assay [20] is > 100 µM (inactive); in [7], over 100 µM; in [8], > 100 µM (inactive); in assay [9], > 100 µM (inactive); in [10] it was > 100 µM (inactive); in assay [11] it was > 100 µM (inactive). Also, the GI50 in [12], in [13], in assay [15], in assay [16], in assay [17] and in [18] was > 100 µM (inactive) in each case.
In the case of `COc1cc2[nH]c(=O)[nH]c2c2c(C)c[nH]c12`, the GI50 in [1], in assay [2], in [3], in assay [19], in [4] and in assay [5] was > 100 µM (inactive) in each case. Besides, the GI50 in [6] was > 100 µM (inactive); in assay [20], > 100 µM (inactive); in assay [7] it was over 100 µM; in assay [8] it was > 100 µM (inactive); in [9] it was > 100 µM (inactive); in [10] it was > 100 µM (inactive). For the same compound, the GI50 in [12], in [13], in assay [14], in assay [15], in assay [16] and in assay [17] was > 100 µM (inactive) in each case. For the same compound, the GI50 in assay [18] was > 100 µM (inactive).
Consider `O=c1[nH]nc(NCCc2ccccc2)c2nnn(Cc3ccccc3)c12`, for which the GI50 in assay [1], in assay [2], in [3], in assay [19], in [4] and in [5] was > 100 µM (inactive) each time. The GI50 was > 100 µM (inactive) in assay [6]; over 100 µM in [7]; > 100 µM (inactive) in assay [8]; > 100 µM (inactive) in [9]; > 100 µM (inactive) in [10]; > 100 µM (inactive) in assay [12]. The GI50 in [13], in assay [14], in assay [15], in assay [16], in [17] and in assay [18] was > 100 µM (inactive) each time.
As to `OCCN(/N=C\c1ccc2ccccc2c1)C1=NCCN1`, the GI50 in [1] is 15.6 µM (inactive); in [3], 29.4 µM (inactive); in assay [19] it was 20.3 µM (inactive); in assay [4], 18.2 µM (inactive); in assay [5] it was 17.9 µM (inactive); in assay [6], 18.6 µM (inactive). Moreover, the GI50 was 47.9 µM (inactive) in assay [20]; 30.5 µM in assay [7]; 16.3 µM (inactive) in [8]; 31 µM (inactive) in assay [9]; 25.2 µM (inactive) in assay [10]; 21 µM (inactive) in assay [11]. Besides, the GI50 is 27.7 µM (inactive) in assay [12]; 37.7 µM (inactive) in assay [13]; 30.8 µM (inactive) in assay [14]; 16.9 µM (inactive) in assay [15]; 32.4 µM (inactive) in assay [16]; 40.5 µM (inactive) in assay [18].
Consider `O=C1N[C@@H](c2c[nH]c3cc(Br)ccc23)C(=O)N[C@H]1c1c[nH]c2cc(Br)ccc12`, for which the GI50 in assay [1] is > 100 µM (inactive); in [3] it was > 100 µM (inactive); in assay [19] it was > 100 µM (inactive); in assay [5] it was > 100 µM (inactive); in assay [6] it was > 100 µM (inactive); in assay [20], 35.4 µM (inactive). Further, the GI50 in [7] was over 100 µM; in assay [8], > 100 µM (inactive); in assay [9], > 100 µM (inactive); in [10], > 100 µM (inactive); in [11], 79.8 µM (inactive); in assay [12] it was > 100 µM (inactive). The GI50 in assay [13], in assay [14], in assay [15], in assay [16], in [17] and in [18] was > 100 µM (inactive) in each case.
As for `CC1(C)OC(=O)N(c2ccccc2)C12C=Cc1cc([N+](=O)[O-])cc([N+](=O)[O-])c1O2` (stereo not given), the GI50 is > 100 µM (inactive) in [2]; > 100 µM (inactive) in [3]; > 100 µM (inactive) in assay [19]; > 100 µM (inactive) in assay [4]; > 100 µM (inactive) in assay [5]; 61.5 µM (inactive) in assay [6]. Besides, the GI50 in [20] was > 100 µM (inactive); in [7], over 100 µM; in assay [8] it was > 100 µM (inactive); in [9], > 100 µM (inactive); in assay [10] it was > 100 µM (inactive); in [12] it was > 100 µM (inactive). The GI50 was > 100 µM (inactive) in assay [13]; 92 µM (inactive) in assay [14]; 83.9 µM (inactive) in assay [15]; > 100 µM (inactive) in assay [16]; 50.2 µM (inactive) in [17]; 91.8 µM (inactive) in assay [18].
